Counter-ions that a name gives are not always drawn.
Experiments:
Settings in all cases: exposure time: 72 h
[1] = test system: E13 (patient-derived glioblastoma stem cells of classical subtype); assay: surviving fraction (nuclei count normalised to DMSO); higher = more cells surviving (less toxic)
[2] = test system: E21 (patient-derived glioblastoma stem cells of mesenchymal subtype); assay: as above
[3] = test system: E28 (patient-derived glioblastoma stem cells of classical subtype); assay: as above
[4] = test system: E31 (patient-derived glioblastoma stem cells of proneural subtype); assay: as above
[5] = test system: E34 (patient-derived glioblastoma stem cells of proneural subtype); assay: as above
[6] = test system: E57 (patient-derived glioblastoma stem cells of mesenchymal subtype); assay: as above
[7] = test system: FT3469 (normal neural stem cell line); assay: as above
[8] = test system: E13; assay: phenotypic distance (Euclidean, principal components) from DMSO controls (arbitrary units); higher = stronger morphological change
[9] = test system: E21; assay: as above
[10] = test system: E28; assay: as above
[11] = test system: E31; assay: as above
[12] = test system: E34; assay: as above
[13] = test system: E57; assay: as above
[14] = test system: FT3469; assay: as above
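Wherever phenotypic distance (Euclidean, principal components) from DMSO controls is given: cell Painting imaging in 384-well plates, CellProfiler features reduced to at least 20 principal components, Euclidean distance versus same-plate DMSO vehicle wells (0.1% v/v), median over six images per well.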
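Wherever surviving fraction (nuclei count normalised to DMSO) is given: nuclei counted by high-content imaging of Hoechst-stained cells in laminin-coated 384-well plates, relative to 0.1% DMSO vehicle wells, with staurosporine as cell-death control.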

OC(c1cc(C(F)(F)F)nc2c(C(F)(F)F)cccc12)C1CCCCN1 (stereo unspecified) [Mefloquine hydrochloride]
Settings | phenotypic distance | surviving fraction
[1], 4.1 nM | – | 0.953
[1], 12.3 nM | – | 0.908
[1], 37 nM | – | 1.09
[1], 111.1 nM | – | 1.03
[1], 333.3 nM | – | 0.98
[1], 1000 nM | – | 0.992
[1], 3000 nM | – | 0.842
[2], 4.1 nM | – | 1.11
[2], 12.3 nM | – | 0.951
[2], 37 nM | – | 0.98
[2], 111.1 nM | – | 0.983
[2], 333.3 nM | – | 1.07
[2], 1000 nM | – | 1.05
[2], 3000 nM | – | 1.07
[3], 4.1 nM | – | 1.12
[3], 12.3 nM | – | 1
[3], 37 nM | – | 1.22
[3], 111.1 nM | – | 1.14
[3], 333.3 nM | – | 1.23
[3], 1000 nM | – | 1.21
[3], 3000 nM | – | 1.12
[4], 4.1 nM | – | 1.11
[4], 12.3 nM | – | 0.942
[4], 37 nM | – | 1.15
[4], 111.1 nM | – | 0.922
[4], 333.3 nM | – | 1.11
[4], 1000 nM | – | 1.06
[4], 3000 nM | – | 0.997
[5], 4.1 nM | – | 1.1
[5], 12.3 nM | – | 0.856
[5], 37 nM | – | 1.06
[5], 111.1 nM | – | 0.941
[5], 333.3 nM | – | 1.14
[5], 1000 nM | – | 0.908
[5], 3000 nM | – | 1.02
[6], 4.1 nM | – | 1.05
[6], 12.3 nM | – | 1.05
[6], 37 nM | – | 0.93
[6], 111.1 nM | – | 0.987
[6], 333.3 nM | – | 1.17
[6], 1000 nM | – | 0.93
[6], 3000 nM | – | 0.903
[7], 4.1 nM | – | 1.13
[7], 12.3 nM | – | 1.13
[7], 37 nM | – | 0.975
[7], 111.1 nM | – | 1.2
[7], 333.3 nM | – | 1.07
[7], 1000 nM | – | 1.02
[7], 3000 nM | – | 0.875
[8], 4.1 nM | 0.361 | –
[8], 12.3 nM | 0.509 | –
[8], 37 nM | 0.5 | –
[8], 111.1 nM | 1.43 | –
[8], 333.3 nM | 0.51 | –
[8], 1000 nM | 0.651 | –
[8], 3000 nM | 0.845 | –
[9], 4.1 nM | 0.776 | –
[9], 12.3 nM | 0.568 | –
[9], 37 nM | 0.797 | –
[9], 111.1 nM | 0.488 | –
[9], 333.3 nM | 0.618 | –
[9], 1000 nM | 0.511 | –
[9], 3000 nM | 1.05 | –
[10], 4.1 nM | 0.636 | –
[10], 12.3 nM | 0.53 | –
[10], 37 nM | 0.741 | –
[10], 111.1 nM | 0.677 | –
[10], 333.3 nM | 0.764 | –
[10], 1000 nM | 1.07 | –
[10], 3000 nM | 1.8 | –
[11], 4.1 nM | 0.433 | –
[11], 12.3 nM | 0.421 | –
[11], 37 nM | 0.563 | –
[11], 111.1 nM | 0.539 | –
[11], 333.3 nM | 0.506 | –
[11], 1000 nM | 0.632 | –
[11], 3000 nM | 0.65 | –
[12], 4.1 nM | 0.892 | –
[12], 12.3 nM | 0.581 | –
[12], 37 nM | 0.73 | –
[12], 111.1 nM | 0.475 | –
[12], 333.3 nM | 0.804 | –
[12], 1000 nM | 0.787 | –
[12], 3000 nM | 0.828 | –
[13], 4.1 nM | 0.488 | –
[13], 12.3 nM | 0.813 | –
[13], 37 nM | 0.474 | –
[13], 111.1 nM | 0.652 | –
[13], 333.3 nM | 1.37 | –
[13], 1000 nM | 0.948 | –
[13], 3000 nM | 0.991 | –
[14], 4.1 nM | 0.882 | –
[14], 12.3 nM | 0.444 | –
[14], 37 nM | 0.675 | –
[14], 111.1 nM | 0.627 | –
[14], 333.3 nM | 0.598 | –
[14], 1000 nM | 0.423 | –
[14], 3000 nM | 1.16 | –

NCc1ccccc1CC(=O)N[C@@H]1C(=O)N2C(C(=O)O)=C(CSc3nnnn3CC(=O)O)CS[C@H]12 [Ceforanide]
Settings | phenotypic distance | surviving fraction
[1], 4.1 nM | – | 0.857
[1], 12.3 nM | – | 0.899
[1], 37 nM | – | 0.892
[1], 111.1 nM | – | 0.955
[1], 333.3 nM | – | 0.967
[1], 1000 nM | – | 0.991
[1], 3000 nM | – | 0.821
[2], 4.1 nM | – | 0.96
[2], 12.3 nM | – | 1
[2], 37 nM | – | 1
[2], 111.1 nM | – | 0.945
[2], 333.3 nM | – | 0.927
[2], 1000 nM | – | 0.94
[2], 3000 nM | – | 0.913
[3], 4.1 nM | – | 1.01
[3], 12.3 nM | – | 0.94
[3], 37 nM | – | 1.19
[3], 111.1 nM | – | 0.907
[3], 333.3 nM | – | 0.952
[3], 1000 nM | – | 0.963
[3], 3000 nM | – | 0.899
[4], 4.1 nM | – | 0.969
[4], 12.3 nM | – | 0.993
[4], 37 nM | – | 0.944
[4], 111.1 nM | – | 1.06
[4], 333.3 nM | – | 0.801
[4], 1000 nM | – | 0.895
[4], 3000 nM | – | 1.03
[5], 4.1 nM | – | 1.07
[5], 12.3 nM | – | 1.01
[5], 37 nM | – | 1.2
[5], 111.1 nM | – | 0.873
[5], 333.3 nM | – | 1.1
[5], 1000 nM | – | 0.901
[5], 3000 nM | – | 0.86
[6], 4.1 nM | – | 0.871
[6], 12.3 nM | – | 0.985
[6], 37 nM | – | 0.982
[6], 111.1 nM | – | 0.995
[6], 333.3 nM | – | 1
[6], 1000 nM | – | 0.926
[6], 3000 nM | – | 0.897
[7], 4.1 nM | – | 0.899
[7], 12.3 nM | – | 0.944
[7], 37 nM | – | 0.806
[7], 111.1 nM | – | 1.05
[7], 333.3 nM | – | 0.931
[7], 1000 nM | – | 1.08
[7], 3000 nM | – | 0.785
[8], 4.1 nM | 0.868 | –
[8], 12.3 nM | 0.834 | –
[8], 37 nM | 0.565 | –
[8], 111.1 nM | 2.99 | –
[8], 333.3 nM | 0.49 | –
[8], 1000 nM | 0.481 | –
[8], 3000 nM | 1.06 | –
[9], 4.1 nM | 0.452 | –
[9], 12.3 nM | 0.464 | –
[9], 37 nM | 0.533 | –
[9], 111.1 nM | 0.73 | –
[9], 333.3 nM | 0.545 | –
[9], 1000 nM | 0.643 | –
[9], 3000 nM | 0.896 | –
[10], 4.1 nM | 0.755 | –
[10], 12.3 nM | 0.829 | –
[10], 37 nM | 0.872 | –
[10], 111.1 nM | 0.701 | –
[10], 333.3 nM | 0.858 | –
[10], 1000 nM | 1.54 | –
[10], 3000 nM | 1.07 | –
[11], 4.1 nM | 0.821 | –
[11], 12.3 nM | 0.599 | –
[11], 37 nM | 0.687 | –
[11], 111.1 nM | 0.68 | –
[11], 333.3 nM | 0.855 | –
[11], 1000 nM | 0.963 | –
[11], 3000 nM | 0.779 | –
[12], 4.1 nM | 0.618 | –
[12], 12.3 nM | 0.456 | –
[12], 37 nM | 0.886 | –
[12], 111.1 nM | 0.834 | –
[12], 333.3 nM | 0.882 | –
[12], 1000 nM | 0.522 | –
[12], 3000 nM | 0.877 | –
[13], 4.1 nM | 0.735 | –
[13], 12.3 nM | 0.47 | –
[13], 37 nM | 0.604 | –
[13], 111.1 nM | 0.425 | –
[13], 333.3 nM | 0.594 | –
[13], 1000 nM | 0.792 | –
[13], 3000 nM | 0.948 | –
[14], 4.1 nM | 0.788 | –
[14], 12.3 nM | 0.666 | –
[14], 37 nM | 0.745 | –
[14], 111.1 nM | 0.803 | –
[14], 333.3 nM | 0.916 | –
[14], 1000 nM | 0.851 | –
[14], 3000 nM | 1.28 | –
